Assay results from paper PMC9986241 (Signal Transduction and Targeted Therapy, 2023).
One block for each molecule: values may come before it.

What was measured:
B-Raf(h) = target: T1, B-Raf(h) (Homo sapiens, UniProt P15056); experiment: KinaseProfiler enzyme profiling; type: biochemical
T1 construct: purchased Eurofins KinaseProfiler
Procedure: (§1) Enzyme profiling services were provided by KinaseProfiler™ (Eurofin, Brussels, Belgium). The concentration of erianin was 100 nM, and total 70 kinases were tested in this in vitro screening and profiling services (2 repetitions). For more details, refer to the manufacturer’s instructions (www.eurofinsdiscoveryservices.com).

CDK6/cyclinD3(h) = target: T2, CDK6/cyclinD3(h) (Homo sapiens, UniProt Q00534); experiment: KinaseProfiler enzyme profiling; type: biochemical
T2 construct: purchased Eurofins KinaseProfiler
Procedure: as §1

EGFR(L861Q)(h) = target: T3, EGFR(L861Q)(h) (Homo sapiens, UniProt P00533, L861Q); experiment: KinaseProfiler enzyme profiling; type: biochemical
T3 construct: purchased Eurofins KinaseProfiler
Procedure: as §1

EphB4(h) = target: T4, EphB4(h) (Homo sapiens, UniProt P54760); experiment: KinaseProfiler enzyme profiling; type: biochemical
T4 construct: purchased Eurofins KinaseProfiler
Procedure: as §1

FGFR1(h) = target: T5, FGFR1(h) (Homo sapiens, UniProt P11362); experiment: KinaseProfiler enzyme profiling; type: biochemical
T5 construct: purchased Eurofins KinaseProfiler
Procedure: as §1

GSK3β(h) = target: T6, GSK3β(h) (Homo sapiens, UniProt P49841); experiment: KinaseProfiler enzyme profiling; type: biochemical
T6 construct: purchased Eurofins KinaseProfiler
Procedure: as §1

MST3(h) = target: T7, MST3(h) (Homo sapiens, UniProt Q9Y6E0); experiment: KinaseProfiler enzyme profiling; type: biochemical
T7 construct: purchased Eurofins KinaseProfiler
Procedure: as §1

NEK2(h) = target: T8, NEK2(h) (Homo sapiens, UniProt P51955); experiment: KinaseProfiler enzyme profiling; type: biochemical
T8 construct: purchased Eurofins KinaseProfiler
Procedure: as §1

PDK1(h) = target: T9, PDK1(h) (Homo sapiens, UniProt O15530); experiment: KinaseProfiler enzyme profiling; type: biochemical
T9 construct: purchased Eurofins KinaseProfiler
Procedure: as §1

c-RAF(h) = target: T10, c-RAF(h) (Homo sapiens, UniProt P04049); experiment: KinaseProfiler enzyme profiling; type: biochemical
T10 construct: purchased Eurofins KinaseProfiler
Procedure: as §1

p70S6K(h) = target: T11, p70S6K(h) (Homo sapiens, UniProt P23443); experiment: KinaseProfiler enzyme profiling; type: biochemical
T11 construct: purchased Eurofins KinaseProfiler
Procedure: as §1

AMPKα1(h) = target: T12, AMPKα1(h) (Homo sapiens, UniProt Q13131); experiment: KinaseProfiler enzyme profiling; type: biochemical
T12 construct: purchased Eurofins KinaseProfiler
Procedure: as §1

ATM(h) = target: T13, ATM(h) (Homo sapiens, UniProt Q13315); experiment: KinaseProfiler enzyme profiling; type: biochemical
T13 construct: purchased Eurofins KinaseProfiler
Procedure: as §1

CDK4/cyclinD3(h) = target: T14, CDK4/cyclinD3(h) (Homo sapiens, UniProt P11802); experiment: KinaseProfiler enzyme profiling; type: biochemical
T14 construct: purchased Eurofins KinaseProfiler
Procedure: as §1

JAK2(h) = target: T15, JAK2(h) (Homo sapiens, UniProt O60674); experiment: KinaseProfiler enzyme profiling; type: biochemical
T15 construct: purchased Eurofins KinaseProfiler
Procedure: as §1

JAK3(h) = target: T16, JAK3(h) (Homo sapiens, UniProt P52333); experiment: KinaseProfiler enzyme profiling; type: biochemical
T16 construct: purchased Eurofins KinaseProfiler
Procedure: as §1

JNK1α1(h) = target: T17, JNK1α1(h) (Homo sapiens, UniProt P45983); experiment: KinaseProfiler enzyme profiling; type: biochemical
T17 construct: purchased Eurofins KinaseProfiler
Procedure: as §1

JNK3(h) = target: T18, JNK3(h) (Homo sapiens, UniProt P53779); experiment: KinaseProfiler enzyme profiling; type: biochemical
T18 construct: purchased Eurofins KinaseProfiler
Procedure: as §1

PAK3(h) = target: T19, PAK3(h) (Homo sapiens, UniProt O75914); experiment: KinaseProfiler enzyme profiling; type: biochemical
T19 construct: purchased Eurofins KinaseProfiler
Procedure: as §1

PDGFRβ(h) = target: T20, PDGFRβ(h) (Homo sapiens, UniProt P09619); experiment: KinaseProfiler enzyme profiling; type: biochemical
T20 construct: purchased Eurofins KinaseProfiler
Procedure: as §1

ROCK-II(h) = target: T21, ROCK-II(h) (Homo sapiens, UniProt O75116); experiment: KinaseProfiler enzyme profiling; type: biochemical
T21 construct: purchased Eurofins KinaseProfiler
Procedure: as §1

mTOR(h) = target: T22, mTOR(h) (Homo sapiens, UniProt P42345); experiment: KinaseProfiler enzyme profiling; type: biochemical
T22 construct: purchased Eurofins KinaseProfiler
Procedure: as §1

A375 (BRAF V600E) = experiment: Cell proliferation MTT assay; type: cell-based; settings: Homo sapiens, A-375, 72 h
Procedure: (§2) The synergism and antagonism (CI value) were determined and analyzed using CompuSyn 1.0.
(§3) For cytotoxicity test, normal NHDF (5000 cells/well) and NHEM cell line (3000 cells/well) were planted into 96-well plates. For cell proliferation assay, A375 (1500 cells/well), SK-MEL-28 (3000 cells/well), SK-MEL-2 (4000 cells/well), and HCT116 (1500 cells/well) were planted into 96-well plates, determined concentration of drug was added after culture for 24 h. The viability of the cells was detected within 72 h using MTT solution (5 mg/mL). The absorbance at 570/490 nm was quantified by the use of the microplate reader.

HCT116 (KRAS mut) = experiment: Cell proliferation MTT assay; type: cell-based; settings: Homo sapiens, HCT-116, 72 h
Procedure: as §2, §3

SK-MEL-2 (NRAS mut) = experiment: Cell proliferation MTT assay; type: cell-based; settings: Homo sapiens, SK-MEL-2, 72 h
Procedure: as §2, §3

SK-MEL-28 (BRAF V600E) = experiment: Cell proliferation MTT assay; type: cell-based; settings: Homo sapiens, SK-MEL-28, 72 h
Procedure: as §2, §3

active CRAF (306-end) = target: T23, active CRAF (306-end) (Homo sapiens, UniProt P04049, Y340E/Y341E); experiment: In vitro kinase assay (western blotting); type: biochemical; settings: 12.5 to 50 nM, dose-dependent
T23 construct: purchased Signal Chem R01-13G
Procedure: (§4) After incubated with 100–400 μM ATP in kinase assay buffer for 30 min, the phosphorylation of the substrate/total substrate protein was detected by western blotting. For ADP-glo kinase assay, unconsumed ATP was depleted with the addition of ADP-Glo™. Followed by kinase detection reagent to convert ADP to ATP, consumption of ATP was detected to evaluate the kinase activity. For more details, refer to the manufacturer’s instructions of ADP-Glo™ Kinase Assay.

[1] = target: active GST-MEK1 full length (Homo sapiens, UniProt Q02750); experiment: In vitro kinase assay (western blotting); type: biochemical; settings: 12.5 to 50 nM, dose-dependent
Procedure: as §4

[2] = target: active GST-MEK2 full length (Homo sapiens, UniProt P36507); experiment: In vitro kinase assay (western blotting); type: biochemical; settings: 12.5 to 50 nM, dose-dependent
Procedure: as §4

[3] = test system: normal human dermal fibroblasts (NHDF); experiment: Cytotoxicity MTT assay; type: cell-based; settings: 0, 12.5, 25, 50 nM
Procedure: as §2, §3

[4] = test system: normal human epidermal melanocytes (NHEM); experiment: Cytotoxicity MTT assay; type: cell-based; settings: 0, 12.5, 25, 50 nM
Procedure: as §2, §3

T11 sequence (P23443 whole entry): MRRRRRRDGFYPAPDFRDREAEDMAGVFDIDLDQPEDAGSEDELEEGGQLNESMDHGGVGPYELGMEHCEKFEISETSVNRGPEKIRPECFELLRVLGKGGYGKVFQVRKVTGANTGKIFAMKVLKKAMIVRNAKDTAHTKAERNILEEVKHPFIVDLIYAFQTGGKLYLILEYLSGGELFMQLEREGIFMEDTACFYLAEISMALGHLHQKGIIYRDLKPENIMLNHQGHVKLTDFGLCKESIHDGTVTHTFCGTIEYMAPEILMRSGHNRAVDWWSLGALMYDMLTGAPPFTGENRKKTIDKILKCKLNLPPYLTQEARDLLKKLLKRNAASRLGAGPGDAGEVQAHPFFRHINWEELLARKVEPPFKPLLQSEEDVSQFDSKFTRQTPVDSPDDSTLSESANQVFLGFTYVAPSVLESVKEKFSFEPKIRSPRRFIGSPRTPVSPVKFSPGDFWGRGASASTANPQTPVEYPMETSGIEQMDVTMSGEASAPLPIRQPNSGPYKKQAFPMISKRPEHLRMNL
T2 sequence (Q00534 whole entry): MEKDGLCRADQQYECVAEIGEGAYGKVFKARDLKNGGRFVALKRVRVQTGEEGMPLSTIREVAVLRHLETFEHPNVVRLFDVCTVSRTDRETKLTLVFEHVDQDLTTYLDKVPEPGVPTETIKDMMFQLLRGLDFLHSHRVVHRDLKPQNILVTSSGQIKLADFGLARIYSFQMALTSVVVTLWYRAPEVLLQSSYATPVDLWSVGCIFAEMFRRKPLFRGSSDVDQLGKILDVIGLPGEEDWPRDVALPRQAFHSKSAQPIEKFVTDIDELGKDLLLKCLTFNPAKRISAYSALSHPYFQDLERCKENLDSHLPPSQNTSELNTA
T2 sequence (P30281 whole entry partner): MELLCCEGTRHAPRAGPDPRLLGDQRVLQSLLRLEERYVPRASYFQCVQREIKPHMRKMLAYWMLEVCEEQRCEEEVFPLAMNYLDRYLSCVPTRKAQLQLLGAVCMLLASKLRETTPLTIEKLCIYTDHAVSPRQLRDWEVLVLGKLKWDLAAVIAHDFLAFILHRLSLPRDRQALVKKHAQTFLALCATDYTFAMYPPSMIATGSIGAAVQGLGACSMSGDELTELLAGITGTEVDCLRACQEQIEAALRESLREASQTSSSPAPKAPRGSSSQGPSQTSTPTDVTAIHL
T8 sequence (P51955 whole entry): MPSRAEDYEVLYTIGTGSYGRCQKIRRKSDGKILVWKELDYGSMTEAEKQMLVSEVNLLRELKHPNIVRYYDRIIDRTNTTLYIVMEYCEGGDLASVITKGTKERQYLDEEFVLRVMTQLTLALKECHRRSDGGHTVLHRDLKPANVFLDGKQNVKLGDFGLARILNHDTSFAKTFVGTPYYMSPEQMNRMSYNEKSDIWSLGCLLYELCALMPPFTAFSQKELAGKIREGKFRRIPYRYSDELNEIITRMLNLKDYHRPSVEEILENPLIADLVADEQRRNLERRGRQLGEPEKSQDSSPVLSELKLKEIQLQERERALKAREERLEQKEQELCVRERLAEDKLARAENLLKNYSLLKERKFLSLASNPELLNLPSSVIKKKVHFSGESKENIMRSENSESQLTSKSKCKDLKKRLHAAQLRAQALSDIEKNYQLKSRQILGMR
T21 sequence (O75116 whole entry): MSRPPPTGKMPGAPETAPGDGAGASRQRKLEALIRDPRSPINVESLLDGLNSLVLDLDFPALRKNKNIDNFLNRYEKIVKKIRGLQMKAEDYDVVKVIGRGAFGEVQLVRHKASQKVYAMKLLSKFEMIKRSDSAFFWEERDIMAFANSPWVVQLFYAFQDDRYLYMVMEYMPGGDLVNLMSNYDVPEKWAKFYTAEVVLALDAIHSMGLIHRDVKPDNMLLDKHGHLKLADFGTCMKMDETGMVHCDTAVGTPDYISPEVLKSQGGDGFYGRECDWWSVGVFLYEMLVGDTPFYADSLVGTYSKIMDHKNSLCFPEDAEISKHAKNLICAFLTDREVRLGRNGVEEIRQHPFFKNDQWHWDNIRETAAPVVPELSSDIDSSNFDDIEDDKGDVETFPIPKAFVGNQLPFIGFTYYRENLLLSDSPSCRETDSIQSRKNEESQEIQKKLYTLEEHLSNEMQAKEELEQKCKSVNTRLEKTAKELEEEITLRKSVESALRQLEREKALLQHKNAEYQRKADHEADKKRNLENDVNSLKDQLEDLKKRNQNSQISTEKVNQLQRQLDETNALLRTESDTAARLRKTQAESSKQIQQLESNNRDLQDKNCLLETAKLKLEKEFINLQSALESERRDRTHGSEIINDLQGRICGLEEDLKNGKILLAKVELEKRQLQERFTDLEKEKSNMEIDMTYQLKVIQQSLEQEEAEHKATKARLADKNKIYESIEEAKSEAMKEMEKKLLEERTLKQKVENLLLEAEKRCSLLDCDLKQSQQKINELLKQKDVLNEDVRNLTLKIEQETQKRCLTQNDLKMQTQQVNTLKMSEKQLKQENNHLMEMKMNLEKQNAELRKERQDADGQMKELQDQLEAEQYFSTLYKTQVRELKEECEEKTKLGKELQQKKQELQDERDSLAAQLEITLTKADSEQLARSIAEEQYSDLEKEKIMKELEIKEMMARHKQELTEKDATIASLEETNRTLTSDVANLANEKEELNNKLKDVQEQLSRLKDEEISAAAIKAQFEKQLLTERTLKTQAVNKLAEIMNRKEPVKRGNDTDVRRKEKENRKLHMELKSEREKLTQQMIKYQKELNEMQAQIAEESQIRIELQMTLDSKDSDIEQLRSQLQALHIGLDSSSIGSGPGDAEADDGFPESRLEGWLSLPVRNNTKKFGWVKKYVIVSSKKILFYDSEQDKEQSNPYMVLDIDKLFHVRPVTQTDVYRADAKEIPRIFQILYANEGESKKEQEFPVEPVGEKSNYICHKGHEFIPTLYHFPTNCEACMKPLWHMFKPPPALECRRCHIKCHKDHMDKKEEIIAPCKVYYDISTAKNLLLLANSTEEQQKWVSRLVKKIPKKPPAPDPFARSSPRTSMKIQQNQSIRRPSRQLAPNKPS
T9 sequence (O15530 whole entry): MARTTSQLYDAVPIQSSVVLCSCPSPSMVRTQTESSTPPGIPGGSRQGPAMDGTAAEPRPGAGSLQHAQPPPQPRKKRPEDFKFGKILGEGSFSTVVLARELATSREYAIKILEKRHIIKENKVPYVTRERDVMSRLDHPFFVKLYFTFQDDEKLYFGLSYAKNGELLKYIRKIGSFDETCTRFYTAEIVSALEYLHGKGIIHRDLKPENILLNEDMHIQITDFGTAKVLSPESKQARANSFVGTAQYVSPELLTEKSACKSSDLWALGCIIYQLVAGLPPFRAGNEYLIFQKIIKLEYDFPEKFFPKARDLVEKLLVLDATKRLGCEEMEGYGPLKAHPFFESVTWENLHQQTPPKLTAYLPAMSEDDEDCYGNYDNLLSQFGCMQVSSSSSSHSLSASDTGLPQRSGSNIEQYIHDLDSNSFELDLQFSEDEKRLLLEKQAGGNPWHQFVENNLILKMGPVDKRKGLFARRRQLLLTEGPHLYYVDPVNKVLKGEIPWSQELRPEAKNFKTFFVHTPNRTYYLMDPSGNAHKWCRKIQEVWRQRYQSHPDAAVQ
T4 sequence (P54760 16-987): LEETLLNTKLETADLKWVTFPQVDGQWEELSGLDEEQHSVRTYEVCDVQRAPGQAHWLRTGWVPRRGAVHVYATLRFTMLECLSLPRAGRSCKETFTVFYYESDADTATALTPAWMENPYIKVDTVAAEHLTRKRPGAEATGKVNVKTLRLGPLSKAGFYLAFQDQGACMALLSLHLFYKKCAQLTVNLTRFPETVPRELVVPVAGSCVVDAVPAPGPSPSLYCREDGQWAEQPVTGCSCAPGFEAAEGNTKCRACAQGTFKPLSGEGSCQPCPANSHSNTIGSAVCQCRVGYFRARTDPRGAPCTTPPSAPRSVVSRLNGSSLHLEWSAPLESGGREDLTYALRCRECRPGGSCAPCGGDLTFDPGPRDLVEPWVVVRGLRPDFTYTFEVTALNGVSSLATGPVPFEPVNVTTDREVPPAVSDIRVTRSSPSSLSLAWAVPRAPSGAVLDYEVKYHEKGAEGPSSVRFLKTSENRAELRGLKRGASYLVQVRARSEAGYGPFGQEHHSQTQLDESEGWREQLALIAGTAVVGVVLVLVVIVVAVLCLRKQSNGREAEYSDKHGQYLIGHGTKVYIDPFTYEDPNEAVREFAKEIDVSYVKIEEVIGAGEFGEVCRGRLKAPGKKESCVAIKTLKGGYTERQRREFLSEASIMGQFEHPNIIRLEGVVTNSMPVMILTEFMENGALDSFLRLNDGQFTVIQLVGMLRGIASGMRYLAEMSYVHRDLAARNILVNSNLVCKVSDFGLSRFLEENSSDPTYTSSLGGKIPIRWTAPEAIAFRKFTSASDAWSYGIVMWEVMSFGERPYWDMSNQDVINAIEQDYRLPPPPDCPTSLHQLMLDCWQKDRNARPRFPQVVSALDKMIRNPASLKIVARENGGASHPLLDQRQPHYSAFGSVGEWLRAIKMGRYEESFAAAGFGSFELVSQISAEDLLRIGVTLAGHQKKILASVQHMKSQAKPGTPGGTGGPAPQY
T17 sequence (P45983 1-384 isoform P45983-2): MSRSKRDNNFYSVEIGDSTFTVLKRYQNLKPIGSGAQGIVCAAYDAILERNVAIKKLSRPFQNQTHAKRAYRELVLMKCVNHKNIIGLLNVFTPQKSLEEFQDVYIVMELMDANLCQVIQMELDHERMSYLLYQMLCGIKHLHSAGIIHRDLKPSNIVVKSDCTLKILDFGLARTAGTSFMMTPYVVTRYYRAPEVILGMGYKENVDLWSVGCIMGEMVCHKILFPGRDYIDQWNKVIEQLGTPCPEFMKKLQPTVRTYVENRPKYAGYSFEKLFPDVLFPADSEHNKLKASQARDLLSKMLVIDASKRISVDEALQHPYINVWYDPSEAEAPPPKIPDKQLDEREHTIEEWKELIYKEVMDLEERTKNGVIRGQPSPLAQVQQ

activity at 10 µM (B-Raf(h); 10 µM): 104%
activity at 10 µM (CDK6/cyclinD3(h)): 101%
activity at 10 µM (EGFR(L861Q)(h); 10 µM): 108%
activity at 10 µM (EphB4(h); 10 µM): 86%
activity at 10 µM (FGFR1(h); 10 µM): 103%
activity at 10 µM (GSK3β(h); 10 µM): 115%
activity at 10 µM (MST3(h)): 103%
activity at 10 µM (NEK2(h)): 105%
activity at 10 µM (PDK1(h)): 107%
activity at 10 µM (c-RAF(h); 10 µM): 104%
activity at 10 µM (p70S6K(h)): 95%
SMILES: COc1cc2oc(-c3ccc(O)c(O)c3)cc(=O)c2c(O)c1OC [Cirsiliol]

SMILES: COc1ccc(CCc2cc(OC)c(OC)c(OC)c2)cc1O [Erianin]
activity at 0.1 µM (AMPKα1(h)): 108%
activity at 0.1 µM (ATM(h)): 111%
activity at 0.1 µM (B-Raf(h)): 103%
activity at 0.1 µM (CDK4/cyclinD3(h)): 105%
activity at 0.1 µM (EGFR(L861Q)(h)): 93%
activity at 0.1 µM (EphB4(h)): 108%
activity at 0.1 µM (FGFR1(h)): 118%
activity at 0.1 µM (GSK3β(h)): 99%
activity at 0.1 µM (JAK2(h)): 107%
activity at 0.1 µM (JAK3(h)): 98%
activity at 0.1 µM (JNK1α1(h)): 101%
activity at 0.1 µM (JNK3(h)): 111%
activity at 0.1 µM (PAK3(h)): 99%
activity at 0.1 µM (PDGFRβ(h)): 133%
activity at 0.1 µM (ROCK-II(h)): 112%
activity at 0.1 µM (c-RAF(h)): 85%
activity at 0.1 µM (mTOR(h)): 104%
IC50 (A375 (BRAF V600E)): 12 ± 0.9 nM
IC50 (HCT116 (KRAS mut)): 20.6 ± 2.2 nM
IC50 (SK-MEL-2 (NRAS mut)): 59.7 ± 7.2 nM
IC50 (SK-MEL-28 (BRAF V600E)): 50.6 ± 1.7 nM
CRAF kinase activity (phosphorylation of MEK1) (active CRAF (306-end)): inhibited
MEK1 kinase activity (phosphorylation of ERK1) [1]: inhibited
MEK2 kinase activity (phosphorylation of ERK2) [2]: inhibited
cytotoxicity [3]: no toxicity
cytotoxicity [4]: no toxicity

activity at 10 µM (AMPKα1(h); 10 µM): 75%
activity at 10 µM (ATM(h); 10 µM): 71%
activity at 10 µM (CDK4/cyclinD3(h); 10 µM): 109%
activity at 10 µM (CDK6/cyclinD3(h)): 69%
activity at 10 µM (JAK2(h); 10 µM): 90%
activity at 10 µM (JAK3(h); 10 µM): 89%
activity at 10 µM (JNK1α1(h); 10 µM): 107%
activity at 10 µM (JNK3(h); 10 µM): 54%
activity at 10 µM (MST3(h)): 74%
activity at 10 µM (NEK2(h)): 90%
activity at 10 µM (PAK3(h); 10 µM): 95%
activity at 10 µM (PDGFRβ(h); 10 µM): 94%
activity at 10 µM (PDK1(h)): 69%
activity at 10 µM (ROCK-II(h); 10 µM): 88%
activity at 10 µM (mTOR(h); 10 µM): 81%
activity at 10 µM (p70S6K(h)): 53%
SMILES: C=C1C(=O)[C@]23[C@H](O)[C@H]1CC[C@H]2[C@@]12CO[C@]3(O)[C@@H](O)[C@@H]1C(C)(C)CC[C@@H]2O [Oridonin]
